Assay results reported in US20240252502A1, “HDAC6 INHIBITORS FOR TREATMENT OF METABOLIC DISEASE AND HFPEF” (Tenaya Therapeutics, Inc., priority 2021, published 2024).

Tested on: HFD/L-NAME mice (HFpEF model)
Experiment: HFD/L-NAME HFpEF mouse model, TYA-11018 versus Empagliflozin
Assay type: in vivo
Details: 15 mg/kg TYA-11018 or 10 mg/kg Empagliflozin orally once daily for 9 weeks
Description: After HFpEF phenotypes were established, mice received 15 mg/kg TYA-11018 or 10 mg/kg Empagliflozin, or vehicle orally once daily for 9 weeks. Health monitoring was performed weekly with body weights recorded. Glucose tolerance test was performed after 1st dose. Cardiac function was recorded by echocardiography after treatment for 9 weeks. End diastolic pressure (EDP) was measured by PV-Loop at terminal at 9 weeks after dosing.
Animals: Cohort of mice with established HFpEF phenotypes and age/sex matched wild type controls were used for dosing study. […] After acclimation for 1 week, one group of mice was fed with high fat diet containing 0.07% L-NAME (LabDiet 5G5V, St Louis, MO) for 15 weeks. The control group of mice were fed with normal chow (LabDiet 5053, St Louis, MO). […] Animals were housed in an animal research facility in accordance with the National Research Council of the National Academies guidelines for the care and use of laboratory animals.
A second group of mice was fed with standard chow for controls.
Transthoracic echocardiography was performed using a VisualSonics Vevo 2100 system equipped with MS400 transducer (Visual Sonics, Toronto, ON). LVEF and other indices of systolic function were obtained from short-axis M-mode scans at the midventricular level, as indicated by the presence of papillary muscles, in conscious, gently restrained mice. […]
Intraperitoneal glucose-tolerance tests were performed by injection of glucose (2 g/kg in saline) after 6 hour fasting (from 7 a.m. to 1 p.m.). Tail blood glucose levels (mg/dL) were measured by AimStrip Plus blood glucose strips used with the AimStrip Plus blood glucose monitoring system (Germaine Laboratories, San Antonio, TX) at 0 (baseline, before glucose dose), 15, 30, 45, 60 and 120 minutes after glucose administration.
The trachea was exposed by a midline incision from the base of the throat to just above the clavicle. […] The hemodynamic parameters were then recorded in close-chest mode. […]

OC[C@H]1O[C@@H](c2ccc(Cl)c(Cc3ccc(O[C@H]4CCOC4)cc3)c2)[C@H](O)[C@@H](O)[C@@H]1O [Empagliflozin, empagliflozin]
E/A: decreased | E/e′ ratio: decreased | end diastolic pressure (PV-Loop): reduced end diastolic pressure
